Measured values published in patent US20260102383A1, “LPAR1 Inhibitors” (AbbVie Inc., priority 2024, published 2026).

The compounds below were run against T1, human LPAR1 (Homo sapiens, UniProt Q92633) (assay: Arrestin assay (Arrestin Reporter EDG2-bla U2OS), inhibition of LPA-stimulated signal). Conditions: TangoEDG2-bla U2OS cells expressing human LPAR1; 0.25 μM LPA; read-out: Arrestin Reporter EDG2-bla U2OS Human Merged IC50.
T1 construct: host or cells: TangoEDG2-bla U2OS cells
Format: cell-based
Method in brief: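 IC50 comes from a variable-slope 4-parameter fit of % inhibition, calculated from the beta-lactamase FRET ratio (emission 460/530 nm, excitation 409 nm, 2 h development at RT). Compounds, 10 μM down to 0.00006 μM in 3-fold steps, were given 1 h before 0.25 μM final LPA for 3 h in TangoEDG2-bla U2OS cells.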

T1 sequence (Q92633 whole entry): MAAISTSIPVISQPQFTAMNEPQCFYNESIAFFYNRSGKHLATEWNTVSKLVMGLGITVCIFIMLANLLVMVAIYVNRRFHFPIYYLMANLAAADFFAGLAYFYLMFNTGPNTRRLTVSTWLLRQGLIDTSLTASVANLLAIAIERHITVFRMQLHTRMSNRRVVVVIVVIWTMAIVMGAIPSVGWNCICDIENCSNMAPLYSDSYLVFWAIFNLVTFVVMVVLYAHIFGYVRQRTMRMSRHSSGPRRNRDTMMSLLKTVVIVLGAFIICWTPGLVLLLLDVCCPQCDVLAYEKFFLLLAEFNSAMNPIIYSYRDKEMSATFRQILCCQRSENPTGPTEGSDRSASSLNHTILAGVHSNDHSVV

Question: With COC(=O)N[C@]1(C(=O)O)C[C@@H](N2CCC(C(=O)Nc3ccc(Cl)cc3OC(F)F)(n3nccc3C(C)C)CC2)C1 [Compound 131] as the compound, how does the IC50 read?
Answer: 134 nM

Question: CC(C)c1ccnn1C1(C(=O)Nc2ccc(Cl)cc2OC(F)F)CCN([C@H]2C[C@@](NS(C)(=O)=O)(C(=O)O)C2)CC1 [Compound 132, (1r,3r)-3-[4-[[4-chloro-2-(difluoromethoxy)phenyl]carbamoyl]-4-(5-isopropylpyrazol-1-yl)-1-piperidyl]-1-(methanesulfonamido) cyclobutanecarboxylic acid] was tested. Which IC50 did it give?
Answer: 178 nM

Question: Which IC50 does the source give for CC(C)c1ccnn1C1(C(=O)Nc2ccc(Cl)cc2OC(F)F)CCN(CC(CCO)C(=O)O)CC1 (stereo not shown) [Compound 133, 2-[[4-[[4-chloro-2-(difluoromethoxy)phenyl]carbamoyl]-4-(5-isopropylpyrazol-1-yl)-1-piperidyl]methyl]-4-hydroxy-butanoic acid] here?
Answer: 74.8 nM

Question: CCOC(CN1CCC(C(=O)Nc2ccc(Cl)cc2OC(F)F)(n2nccc2C(C)C)CC1)C(=O)O (stereo not shown) [Compound 134, 3-[4-[[4-chloro-2-(difluoromethoxy)phenyl]carbamoyl]-4-(5-isopropylpyrazol-1-yl)-1-piperidyl]-2-ethoxy-propanoic acid] was tested. Which IC50 did it give?
Answer: 71.5 nM

Question: How did the IC50 turn out when COCOCC(CN1CCC(C(=O)Nc2ccc(Cl)cc2OC(F)F)(n2nccc2C(C)C)CC1)C(=O)O (stereo not shown) [Compound 135, 2-[[4-[[4-chloro-2-(difluoromethoxy)phenyl]carbamoyl]-4-(5-isopropylpyrazol-1-yl)-1-piperidyl]methyl]-3-(methoxymethoxy) propanoic acid] was run?
Answer: 76.9 nM

Question: With CC(C)c1ccnn1C1(C(=O)Nc2ccc(Cl)cc2OC(F)F)CCN(CC(C(=O)O)C2CCOC2)CC1 (stereo not shown) [Compound 136, 3-[4-[[4-chloro-2-(difluoromethoxy)phenyl]carbamoyl]-4-(5-isopropylpyrazol-1-yl)-1-piperidyl]-2-tetrahydrofuran-3-yl-propanoic acid] as the compound, how does the IC50 read?
Answer: 46.7 nM

Question: Which IC50 does the source give for CC(C)c1ccnn1C1(C(=O)Nc2ccc(Cl)cc2OC(F)F)CCN([C@@H]2CO[C@@H](C(=O)O)C2)CC1 [Compound 138, (2R,4S)-4-[4-[[4-chloro-2-(difluoromethoxy)phenyl]carbamoyl]-4-(5-isopropylpyrazol-1-yl)-1-piperidyl]tetrahydrofuran-2-carboxylic acid] here?
Answer: 72 nM

Question: How did the IC50 turn out when CC(C)c1ccnn1C1(C(=O)Nc2ccc(Cl)cc2OC(F)F)CCN([C@H]2CO[C@@H](C(=O)O)C2)CC1 [Compound 139, (2R,4R)-4-[4-[[4-chloro-2-(difluoromethoxy)phenyl]carbamoyl]-4-(5-isopropylpyrazol-1-yl)-1-piperidyl]tetrahydrofuran-2-carboxylic acid] was run?
Answer: 53.7 nM

Question: For CC(C)c1c(F)cnn1C1(C(=O)Nc2ccc(Cl)cc2OC(F)F)CCN(C[C@H](C(=O)O)C2CCOCC2)CC1 [Compound 141, (28)-3-[4-[[4-chloro-2-(difluoromethoxy)phenyl]carbamoyl]-4-(4-fluoro-5-isopropyl-pyrazol-1-yl)-1-piperidyl]-2-tetrahydropyran-4-yl-propanoic acid], which IC50 is on record?
Answer: 25.7 nM

Question: How did the IC50 turn out when COCCC(CN1CCC(C(=O)Nc2ccc(Cl)cc2OC(F)F)(n2nccc2C(C)C)CC1)C(=O)O (stereo not shown) [Compound 142, 2-[[4-[[4-chloro-2-(difluoromethoxy)phenyl]carbamoyl]-4-(5-isopropylpyrazol-1-yl)-1-piperidyl]methyl]-4-methoxy-butanoic acid] was run?
Answer: 37.9 nM

Question: With C=C(CN1CCC(C(=O)Nc2ccc(Cl)cc2OC(F)F)(n2nccc2C(C)C)CC1)C(=O)O [Compound 143, 2-[[4-[[4-chloro-2-(difluoromethoxy)phenyl]carbamoyl]-4-(5-isopropylpyrazol-1-yl)-1-piperidyl]methyl]prop-2-enoic acid] as the compound, how does the IC50 read?
Answer: 32.2 nM

Question: How did the IC50 turn out when CCO[C@H](CN1CCC(C(=O)Nc2ccc(Cl)cc2OC(F)F)(n2nccc2C(C)C)CC1)C(=O)O [Compound 144, (2R)-3-[4-[[4-chloro-2-(difluoromethoxy)phenyl]carbamoyl]-4-(5-isopropylpyrazol-1-yl)-1-piperidyl]-2-ethoxy-propanoic acid] was run?
Answer: 55.9 nM

Question: Which IC50 does the source give for COC1CCC(C(CN2CCC(C(=O)Nc3ccc(Cl)cc3OC(F)F)(n3nccc3C(C)C)CC2)C(=O)O)CC1 (stereo not shown) [Compound 145, 3-[4-[[4-chloro-2-(difluoromethoxy)phenyl]carbamoyl]-4-(5-isopropylpyrazol-1-yl)-1-piperidyl]-2-(4-methoxycyclohexyl) propanoic acid] here?
Answer: 40.9 nM

Question: CC(C)c1ccnn1C1(C(=O)Nc2ccc(Cl)cc2OC(F)F)CCN(CC(CC#N)C(=O)O)CC1 (stereo not shown) [Compound 146, 2-[[4-[[4-chloro-2-(difluoromethoxy)phenyl]carbamoyl]-4-(5-isopropylpyrazol-1-yl)-1-piperidyl]methyl]-3-cyano-propanoic acid] was tested. Which IC50 did it give?
Answer: 15.6 nM

Question: With CC(C)c1ccnn1C1(C(=O)Nc2ccc(Cl)cc2OC(F)F)CCN(CC(C(=O)O)c2cnn(C)c2)CC1 (stereo not shown) [Compound 147, 3-[4-[[4-chloro-2-(difluoromethoxy)phenyl]carbamoyl]-4-(5-isopropylpyrazol-1-yl)-1-piperidyl]-2-(1-methylpyrazol-4-yl)propanoic acid] as the compound, how does the IC50 read?
Answer: 167 nM

Question: With CC(C)c1ccnn1C1(C(=O)Nc2ccc(Cl)cc2OC(F)F)CCN(C[C@H](C(=O)O)[C@H]2CCOC2)CC1 [Compound 148, (2R)-3-[4-[[4-chloro-2-(difluoromethoxy)phenyl]carbamoyl]-4-(5-isopropylpyrazol-1-yl)-1-piperidyl]-2-[(3R)-tetrahydrofuran-3-yl]propanoic acid] as the compound, how does the IC50 read?
Answer: 50.4 nM

Question: CC(C)c1c(F)cnn1C1(C(=O)Nc2ccc(Cl)cc2OC(F)F)CCN(CC2(C(=O)O)CCC(=O)CC2)CC1 [Compound 153, 1-[[4-[[4-chloro-2-(difluoromethoxy)phenyl]carbamoyl]-4-(4-fluoro-5-isopropyl-pyrazol-1-yl)-1-piperidyl]methyl]-4-oxo-cyclohexanecarboxylic acid] was tested. Which IC50 did it give?
Answer: 30.4 nM

Question: For CC(C)c1ccnn1C1(C(=O)Nc2ccc(Cl)cc2OC(F)F)CCN(C[C@@H](C(=O)O)c2cnn(C)c2)CC1 [Compound 155, (2S)-3-[4-[[4-chloro-2-(difluoromethoxy)phenyl]carbamoyl]-4-(5-isopropylpyrazol-1-yl)-1-piperidyl]-2-(1-methylpyrazol-4-yl)propanoic acid], which IC50 is on record?
Answer: 125 nM

Question: COCC[C@@H](CN1CCC(C(=O)Nc2ccc(Cl)cc2OC(F)F)(n2nccc2C(C)C)CC1)C(=O)O [Compound 156, (2S)-2-[[4-[[4-chloro-2-(difluoromethoxy)phenyl]carbamoyl]-4-(5-isopropylpyrazol-1-yl)-1-piperidyl]methyl]-4-methoxy-butanoic acid] was tested. Which IC50 did it give?
Answer: 49.7 nM

Question: How did the IC50 turn out when COCC[C@H](CN1CCC(C(=O)Nc2ccc(Cl)cc2OC(F)F)(n2nccc2C(C)C)CC1)C(=O)O [Compound 157, (2R)-2-[[4-[[4-chloro-2-(difluoromethoxy)phenyl]carbamoyl]-4-(5-isopropylpyrazol-1-yl)-1-piperidyl]methyl]-4-methoxy-butanoic acid] was run?
Answer: 53.2 nM

Question: For CC(C)c1c(F)cnn1C1(C(=O)Nc2ccc(Cl)cc2OC(F)F)CCN(C[C@@H](C(=O)O)C2CCOCC2)CC1 [Compound 158, (2.8)-3-[4-[[4-chloro-2-(difluoromethoxy)phenyl]carbamoyl]-4-(4-fluoro-5-isopropyl-pyrazol-1-yl)-1-piperidyl]-2-tetrahydropyran-4-yl-propanoic acid], which IC50 is on record?
Answer: 46 nM

Question: How did the IC50 turn out when CC(C)c1ccnn1C1(C(=O)Nc2ccc(Cl)cc2OC(F)F)CCN(C[C@H](C(=O)O)N2C[C@@H](C)O[C@H](C)C2)CC1 [Compound 159, (2R)-3-[4-[[4-chloro-2-(difluoromethoxy)phenyl]carbamoyl]-4-(5-isopropylpyrazol-1-yl)-1-piperidyl]-2-[(2R,6R)-2,6-dimethylmorpholin-4-yl]propanoic acid] was run?
Answer: 326 nM

Question: For CC(C)c1ccnn1C1(C(=O)Nc2ccc(Cl)cc2OC(F)F)CCN(C[C@@H](C(=O)O)N2C[C@@H](C)O[C@H](C)C2)CC1 [Compound 160, (2S)-3-[4-[[4-chloro-2-(difluoromethoxy)phenyl]carbamoyl]-4-(5-isopropylpyrazol-1-yl)-1-piperidyl]-2-[(2R,6R)-2,6-dimethylmorpholin-4-yl]propanoic acid], which IC50 is on record?
Answer: 86.9 nM

Question: Which IC50 does the source give for CC(C)c1c(F)cnn1C1(C(=O)Nc2ccc(Cl)cc2OC(F)F)CCN(C[C@]2(C(=O)O)CC[C@H](O)CC2)CC1 [Compound 161, (1r,4r)-1-[[4-[[4-chloro-2-(difluoromethoxy)phenyl]carbamoyl]-4-(4-fluoro-S-isopropyl-pyrazol-1-yl)-1-piperidyl]methyl]-4-hydroxy-cyclohexanecarboxylic acid] here?
Answer: 212 nM

Question: How did the IC50 turn out when CC(C)c1c(F)cnn1C1(C(=O)Nc2ccc(Cl)cc2OC(F)F)CCN(C[C@]2(C(=O)O)CC[C@@H](O)CC2)CC1 [Compound 162, (1s,4s)-1-[[4-[[4-chloro-2-(difluoromethoxy)phenyl]carbamoyl]-4-(4-fluoro-5-isopropyl-pyrazol-1-yl)-1-piperidyl]methyl]-4-hydroxy-cyclohexanecarboxylic acid] was run?
Answer: 51.8 nM

Question: With CC(C)c1ccnn1C1(C(=O)Nc2ccc(Cl)cc2OC(F)F)CCN([C@H]2C[C@](O)(C(=O)O)C2)CC1 [Compound 164, (1s,3s)-3-[4-[[4-chloro-2-(difluoromethoxy)phenyl]carbamoyl]-4-(5-isopropylpyrazol-1-yl)-1-piperidyl]-1-hydroxy-cyclobutanecarboxylic acid] as the compound, how does the IC50 read?
Answer: 72.4 nM

Question: Which IC50 does the source give for CC(C)c1ccnn1C1(C(=O)Nc2ccc(Cl)cc2OC(F)F)CCN(C[C@@H](C(=O)O)N2CCOC(C)(C)C2)CC1 [Compound 165, (2S)-3-[4-[[4-chloro-2-(difluoromethoxy)phenyl]carbamoyl]-4-(5-isopropylpyrazol-1-yl)-1-piperidyl]-2-(2,2-dimethylmorpholin-4-yl)propanoic acid] here?
Answer: 137 nM

Question: For CC(C)c1ccnn1C1(C(=O)Nc2ccc(Cl)cc2OC(F)F)CCN(C[C@H](C(=O)O)N2CCOC(C)(C)C2)CC1 [Compound 166], which IC50 is on record?
Answer: 120 nM
